Laboratory results as given in EP4782445A1, “CDK KINASE INHIBITOR AND USE THEREOF” (Abbisko Therapeutics Co., Ltd., priority 2023, dated 2025).

Key:
[1] = molecular target: T1, CDK4/cyclin D3 (Homo sapiens, UniProt P11802); assay: In vitro biochemical kinase activity assay for CDK4/cyclin D3 (HTRF)
T1 construct: purchased Carna
In short: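 HTRF kinase reaction: 4.9 nM CDK4/cyclin D3, 1 mM (or 80 µM) ATP and 0.3 µM Rb-biotin substrate, 90 min at 30°C in buffer with 50 mM MgCl2 and 1 mM DTT.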

[2] = molecular target: T2, CDK6/cyclin D3 (Homo sapiens, UniProt Q00534); assay: In vitro biochemical kinase activity assay for CDK6/cyclin D3 (HTRF)
T2 construct: purchased Carna
In short: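 HTRF assay: 0.02 nM CDK6/cyclin D3 incubated with 1 mM (or 100 µM) ATP and 0.3 µM Rb-biotin substrate at 30°C for 60 min in kinase buffer with 5 mM MgCl2 and 1 mM DTT.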

[3] = data marked with *: 1 mM ATP in Step 1

T2 sequence (Q00534 whole entry): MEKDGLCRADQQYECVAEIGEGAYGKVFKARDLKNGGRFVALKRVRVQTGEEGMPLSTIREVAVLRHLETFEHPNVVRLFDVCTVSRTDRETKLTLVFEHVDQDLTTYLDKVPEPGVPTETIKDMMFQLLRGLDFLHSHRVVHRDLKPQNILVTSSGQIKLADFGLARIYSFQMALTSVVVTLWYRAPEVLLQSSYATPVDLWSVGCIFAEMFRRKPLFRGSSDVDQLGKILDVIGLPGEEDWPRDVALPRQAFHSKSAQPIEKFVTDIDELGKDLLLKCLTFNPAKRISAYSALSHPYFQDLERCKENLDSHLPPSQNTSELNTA
T2 sequence (P30281 whole entry partner): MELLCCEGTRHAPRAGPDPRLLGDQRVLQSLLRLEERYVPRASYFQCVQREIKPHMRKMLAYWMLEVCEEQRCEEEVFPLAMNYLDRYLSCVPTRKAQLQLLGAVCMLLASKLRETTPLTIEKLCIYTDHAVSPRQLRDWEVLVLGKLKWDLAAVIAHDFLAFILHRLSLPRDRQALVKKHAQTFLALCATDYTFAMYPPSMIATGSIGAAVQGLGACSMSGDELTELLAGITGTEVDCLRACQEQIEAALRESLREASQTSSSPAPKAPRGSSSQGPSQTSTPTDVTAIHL
T1 sequence (P11802 whole entry): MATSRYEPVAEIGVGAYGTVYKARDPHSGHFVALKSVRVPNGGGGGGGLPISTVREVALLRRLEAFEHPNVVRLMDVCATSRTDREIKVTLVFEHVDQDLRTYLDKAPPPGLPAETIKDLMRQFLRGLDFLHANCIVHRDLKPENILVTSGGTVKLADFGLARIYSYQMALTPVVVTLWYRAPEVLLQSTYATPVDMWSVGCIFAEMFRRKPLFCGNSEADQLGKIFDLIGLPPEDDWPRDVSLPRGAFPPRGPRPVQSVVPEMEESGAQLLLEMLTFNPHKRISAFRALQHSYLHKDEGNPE
T1 sequence (P30281 whole entry partner): as the sequence (P30281 whole entry partner) above

Compound | IC50 [1, 3] [nM] | IC50 [2, 3] [nM] | IC50 ([1]; unmarked data: 80 µM ATP in Step 1) [nM] | IC50 ([2]; unmarked data: 100 µM ATP in Step 1) [nM]
CC(C)n1c(C#Cc2nc(Nc3ccc(N4CC5(CN(C)C5)C4)cn3)ncc2Cl)cnc1CN1CCC[C@H](O)C1 [Example 115, (S)-1-((5-((5-chloro-2-((5-(6-methyl-2,6-diazaspiro[3.3]heptan-2-yl)pyridin-2-yl)amino)pyrimidin-4-yl)ethynyl)-1-isopropyl-1H-imidazol-2-yl)methyl)piperidin-3-ol] | 2.28 | 17.9 |  | 
CC(C)n1c(C#Cc2nc(Nc3ccc(N4CC5(CN(CC(F)F)C5)C4)cn3)ncc2Cl)cnc1CN1CCC[C@H](O)C1 [Example 116, (S)-1-((5-((5-chloro-2-((5-(6-(2,2-difluoroethyl)-2,6-diazaspiro[3.3]heptan-2-yl)pyridin-2-yl)amino)pyrimidin-4-yl)ethynyl)-1-isopropyl-1H-imidazol-2-yl)methyl)piperidin-3-ol] | 5.7 | 87.8 |  | 
CC(C)n1c(C#Cc2nc(N[C@@H]3CCOC[C@H]3O)ncc2Cl)cnc1C(=O)N1CCC[C@H](O)C1 [Example 117, (5-((5-chloro-2-(((3 S,4R)-3-hydroxytetrahydro-2H-pyran-4-yl)amino)pyrimidin-4-yl)ethynyl)-1-isopropyl-1H-imidazol-2-yl)((S)-3-hydroxypiperidin-1-yl)methanone] | 615 | 5550 |  | 
CC(C)n1c(C#Cc2cc(N[C@@H]3CCOC[C@H]3O)ncc2Cl)cnc1C(C)(C)O [Example 118, (3 S,4R)-4-((5-chloro-4-((2-(2-hydroxypropan-2-yl)-1-isopropyl-1H-imidazol-5-yl)ethynyl)pyridin-2-yl)amino)tetrahydro-2H-pyran-3-ol] | 21.7 | 135 |  | 
CC(C)n1c(C#Cc2nc(Nc3ccc(C4C5CN(C)CC54)cn3)ncc2Cl)cnc1C(C)(C)O (stereo not drawn) [Example 119, 2-(5-((5-chloro-2-((5-(3-methyl-3-azabicyclo[3.1.0]hexan-6-yl)pyridin-2-yl)amino)pyrimidin-4-yl)ethynyl)-1-isopropyl-1H-imidazol-2-yl)propan-2-ol] | 5.37 | 15.4 |  | 
CC(C)n1c(C#Cc2nc(N[C@@H]3CCOC[C@H]3O)ncc2Cl)cnc1C1CC1 [Example 120, (3 S,4R)-4-((5-chloro-4-((2-cyclopropyl-1-isopropyl-1H-imidazol-5-yl)ethynyl)pyrimidin-2-yl)amino)tetrahydro-2H-pyran-3-ol] | 26.1 | 130 |  | 
CC(C)n1c(C#Cc2nc(N[C@@H]3CCOC[C@H]3O)ncc2Cl)cnc1C1(O)CC1 [Example 121, (3 S,4R)-4-((5-chloro-4-((2-(1-hydroxycyclopropyl)-1-isopropyl-1H-imidazol-5-yl)ethynyl)pyrimidin-2-yl)amino)tetrahydro-2H-pyran-3-ol] | 9.24 | 75.9 |  | 
CCN1CCN(Cc2ccc(Nc3ncc(Cl)c(C#Cc4cnc(C(C)O)n4C(C)C)n3)nc2)CC1 (stereo not drawn) [Example 122, 1-(5-((5-chloro-2-((5-((4-ethylpiperazin-1-yl)methyl)pyridin-2-yl)amino)pyrimidin-4-yl)ethynyl)-1-isopropyl-1H-imidazol-2-yl)ethan-1-ol] | 2.07 | 7.84 |  | 
CC(C)n1c(C#Cc2nc(N[C@@H]3CCOC[C@H]3O)ncc2Cl)cnc1[C@@H](C)N1CCC[C@H](O)C1 [Example 123, (S)-1-((R)-1-(5-((5-chloro-2-(((3 S,4R)-3-hydroxytetrahydro-2H-pyran-4-yl)amino)pyrimidin-4-yl)ethynyl)-1-isopropyl-1H-imidazol-2-yl)ethyl)piperidin-3-ol] | 36.9 | 545 |  | 
CC(C)n1c(C#Cc2nc(N[C@@H]3CCOC[C@H]3O)ncc2Cl)cnc1[C@H](C)N1CCC[C@H](O)C1 [Example 124, (S)-1-((S)-1-(5-((5-chloro-2-(((3 S,4R)-3-hydroxytetrahydro-2H-pyran-4-yl)amino)pyrimidin-4-yl)ethynyl)-1-isopropyl-1H-imidazol-2-yl)ethyl)piperidin-3-ol] | 182 | 1160 |  | 
CC(C)n1c(C#Cc2nc(N[C@@H]3CCOC[C@H]3O)ncc2Cl)cnc1C(C)(O)C1CC1 (stereo partly drawn) [Example 125, (3 S,4R)-4-((5-chloro-4-((2-(1-cyclopropyl-1-hydroxyethyl)-1-isopropyl-1H-imidazol-5-yl)ethynyl)pyrimidin-2-yl)amino)tetrahydro-2H-pyran-3-ol] | 11.6 | 65.4 |  | 
CC(C)n1c(C#Cc2nc(N[C@@H]3CCOC[C@H]3O)ncc2Cl)cnc1N1CCOC1=O [Example 126, 3-(5-((5-chloro-2-(((3S,4R)-3-hydroxytetrahydro-2H-pyran-4-yl)amino)pyrimidin-4-yl)ethynyl)-1-isopropyl-1H-imidazol-2-yl)oxazolidin-2-one] | 17 | 75.8 |  | 
Cn1ncc(C#Cc2nc(N[C@@H]3CCOC[C@H]3O)ncc2Cl)c1C(C)(C)C [Example 127, (3 S,4R)-4-((4-((5-(tert-butyl)-1-methyl-1H-pyrazol-4-yl)ethynyl)-5-chloropyrimidin-2-yl)amino)tetrahydro-2H-pyran-3-ol] | 137 | 455 |  | 
CC(C)c1c(C#Cc2nc(N[C@@H]3CCOC[C@H]3O)ncc2Cl)cnn1CC(F)F [Example 128, (3 S,4R)-4-((5-chloro-4-((1-(2,2-difluoroethyl)-5-isopropyl-1H-pyrazol-4-yl)ethynyl)pyrimidin-2-yl)amino)tetrahydro-2H-pyran-3-ol] | 53.3 | 254 |  | 
CC(C)n1c(C#Cc2nc(N[C@@H]3CCN(S(C)(=O)=O)C[C@H]3O)ncc2Cl)cnc1CN1CCC[C@H](O)C1 [Example 129, (3R,4R)-4-((5-chloro-4-((2-(((S)-3-hydroxypiperidin-1-yl)methyl)-1-isopropyl-1H-imidazol-5-yl)ethynyl)pyrimidin-2-yl)amino)-1-(methanesulfonyl)piperidin-3-ol] | 1.48 | 21 |  | 
CN(C)c1c(C#Cc2nc(N[C@@H]3CCOC[C@H]3O)ncc2Cl)cnn1C [Example 130, (3 S,4R)-4-((5-chloro-4-((5-(dimethylamino)-1-methyl-1H-pyrazol-4-yl)ethynyl)pyrimidin-2-yl)amino)tetrahydro-2H-pyran-3-ol] | 23.5 | 222 |  | 
CC(C)n1c(C#Cc2nc(N[C@@H]3CCOC[C@H]3O)ncc2Cl)cnc1CC1(N)CCCC1 [Example 131, (3S,4R)-4-((4-((2-((1-aminocyclopentyl)methyl)-1-isopropyl-1H-imidazol-5-yl)ethynyl)-5-chloropyrimidin-2-yl)amino)tetrahydro-2H-pyran-3-ol] | 23.2 | 684 |  | 
CC1CCOc2ncc(C#Cc3nc(N[C@@H]4CCOC[C@H]4O)ncc3Cl)n21 (stereo partly drawn) [Example 132, (3 S,4R)-4-((5-chloro-4-((5-methyl-6,7-dihydro-5H-imidazo[2,1-o][1,3]oxazin-3-yl)ethynyl)pyrimidin-2-yl)amino)tetrahydro-2H-pyran-3-ol] | 93.7 | 243 |  | 
CC1CCN(C)c2ncc(C#Cc3nc(N[C@@H]4CCOC[C@H]4O)ncc3Cl)n21 (stereo partly drawn) [Example 135, (3 S,4R)-4-((5-chloro-4-((5,8-dimethyl-5,6,7,8-tetrahydroimidazo[1,2-a]pyrimidin-3-yl)ethynyl)pyrimidin-2-yl)amino)tetrahydro-2H-pyran-3-ol] | 177 | 275 |  | 
CC(C)(C)n1cncc1C#Cc1nc(N[C@@H]2CCOC[C@H]2O)ncc1Cl [Example 136, (3S,4R)-4-((4-((1-(tert-butyl)-1H-imidazol-5-yl)ethynyl)-5-chloropyrimidin-2-yl)amino)tetrahydro-2H-pyran-3-ol] |  |  | 10.3 | 39.3
[2H]C([2H])(c1ncc(C#Cc2nc(Nc3ccc(CN4CCN(CC)CC4)cn3)ncc2Cl)n1C(C)C)N1CCC[C@H](O)C1 [Example 137, (S)-1-((5-((5-chloro-2-((5-((4-ethylpiperazin-1-yl)methyl)pyridin-2-yl)amino)pyrimidin-4-yl)ethynyl)-1-isopropyl-1H-imidazol-2-yl)methyl-d2)piperidin-3-ol] | 3.17 | 53 |  | 
[2H]C(C)(O)c1ncc(C#Cc2nc(N[C@@H]3CCOC[C@H]3O)ncc2Cl)n1C(C)C (stereo partly drawn) [Example 138, (3 S,4R)-4-((S-chloro-4-((2-(1-hydroxyethyl-1-d)-1-isopropyl-1H-imidazol-5-yl)ethynyl)pyrimidin-2-yl)amino)tetrahydro-2H-pyran-3-ol] | 5.92 | 38.4 |  | 
(3 S,4R)-4-((5-chloro-4-((1-(1, 1-difluoropropan-2-yl)-1H-imidazol-5-yl)ethynyl)pyrimidin-2-yl)amino)tetrahydro-2H-pyran-3-ol [Example 134] | 36.1 | 230 |  | 
(3S,4R)-4-((5-chloro-4-((1-(1, 1-difluoropropan-2-yl)-2-(2-hydroxypropan-2-yl)-1H-imidazol-5-yl)ethynyl)pyrimidin-2-yl)amino)tetrahydro-2H-pyran-3-ol [Example 133] | 260 | 1140 |  | 
